This note sets out measurements from PubChem BioAssay (NCI).

Among the test systems are IGROV1 ovarian; HCT-116 colon; U251 CNS; SN12C renal; SK-MEL-5 melanoma; K-562 leukemia; HOP-62 NSCLC; PC-3 prostate.
Common to all, as to experiment: growth of human tumour cells (NCI), 48 h

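Step 1: Grow cells in 96-well plates. Step 2: Expose to compound for 48 hours at 5 concentrations. Step 3: Interpolate endpoints linearly; if unreached, use highest concentration. GI50 marks 50% less growth. The concentration for full growth arrest is given as TGI.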

On to `CN1CCN2c3ccccc3CC(C#N)(C#N)C2C1` (stereo not given), for which the TGI with IGROV1 ovarian, in the experiment with HCT-116 colon, in the experiment with U251 CNS, in the experiment on SN12C renal, in the experiment with SK-MEL-5 melanoma and in the experiment on K-562 leukemia was above 100 µM in each case.
Consider `Clc1cc2nc[nH]c2cc1Cl`, for which the TGI with IGROV1 ovarian, in the experiment with U251 CNS, in the experiment on HOP-62 NSCLC, in the experiment on SN12C renal and in the experiment on K-562 leukemia was above 100 µM each time.
Take `CCOc1cccc2sc(N)nc12`: the TGI with IGROV1 ovarian, in the experiment with HCT-116 colon, in the experiment on U251 CNS, with HOP-62 NSCLC, with SN12C renal and in the experiment on SK-MEL-5 melanoma was above 100 µM throughout. The compound also showed a TGI in the experiment on K-562 leukemia above 100 µM.
On to `COC(=O)CCC(=O)Nc1cccc(C(F)(F)F)c1`, for which the TGI with IGROV1 ovarian, in the experiment with HCT-116 colon, with U251 CNS, with HOP-62 NSCLC, with SN12C renal and in the experiment with SK-MEL-5 melanoma was above 100 µM each time. For the same compound, in the experiment on K-562 leukemia, the TGI was above 100 µM.
In the case of `COc1cccc(-c2cc(=O)c3cc(C)c(C)c(C(=O)O)c3o2)c1`, the TGI with IGROV1 ovarian, in the experiment on HCT-116 colon, with U251 CNS, with HOP-62 NSCLC, with SN12C renal and in the experiment with SK-MEL-5 melanoma was above 100 µM each time. Besides, the TGI with K-562 leukemia is above 100 µM.
As to `C[C@]12CC[C@H](OC(=O)Cc3ccc(N(CCCl)CCCl)cc3)CC1CC[C@@H]1C2CC[C@]2(C)NC(=O)CCC12` (stereo not given in full), the TGI came out at 30.5 µM in the experiment on IGROV1 ovarian; 18.5 µM with HCT-116 colon; 29.3 µM in the experiment on U251 CNS; 18.6 µM in the experiment with SN12C renal; 32.5 µM in the experiment with SK-MEL-5 melanoma; 24.8 µM in the experiment with K-562 leukemia.
As to `CCOC(=O)C1Nc2ccc([N+](=O)[O-])cc2[C@H]2OCC[C@@H]12` (stereo not given in full), the TGI with IGROV1 ovarian, with HCT-116 colon, in the experiment with U251 CNS, with HOP-62 NSCLC, with SN12C renal and with SK-MEL-5 melanoma was above 100 µM each time. The TGI in the experiment with K-562 leukemia was above 100 µM.
With `CN(C(=N)c1ccccc1)c1ccccc1`, the TGI in the experiment with IGROV1 ovarian, with HCT-116 colon, with U251 CNS, in the experiment on SN12C renal, in the experiment on SK-MEL-5 melanoma and with K-562 leukemia was above 100 µM each time.
As for `Cc1cc(Cl)ccc1NC(=O)C1C(=O)C(=O)N(c2ccc(Cl)cc2C)C1=O` (stereo not given), the TGI in the experiment with IGROV1 ovarian, in the experiment on HCT-116 colon, in the experiment with U251 CNS, with HOP-62 NSCLC, in the experiment with SN12C renal and with SK-MEL-5 melanoma was above 100 µM in each case. Also, the TGI with K-562 leukemia was above 100 µM.
Turning to `[O-]c1ccccc1[C-]=Nc1ccccc1O.[O-]c1ccccc1[C-]=Nc1ccccc1O.[O]=[U]=[O]`, the GI50 in the experiment with IGROV1 ovarian was 21.8 µM; in the experiment with U251 CNS, 11.6 µM; in the experiment on HOP-62 NSCLC it was 19.9 µM; in the experiment on SN12C renal, 10 µM; with SK-MEL-5 melanoma, 8.38 µM; in the experiment on K-562 leukemia, 2.79 µM. The TGI in the experiment with IGROV1 ovarian was 71 µM; in the experiment on U251 CNS it was 33.6 µM; in the experiment on HOP-62 NSCLC, 57.4 µM; with SN12C renal, 35.4 µM; in the experiment with SK-MEL-5 melanoma, 43 µM; in the experiment on K-562 leukemia it was above 100 µM.
`CN1C(=O)C(C)(C)NS1(=O)=O`: the TGI in the experiment on IGROV1 ovarian, with HCT-116 colon, in the experiment with U251 CNS, in the experiment with HOP-62 NSCLC, with SN12C renal and in the experiment on SK-MEL-5 melanoma was above 100 µM throughout. The compound further had a TGI in the experiment on K-562 leukemia above 100 µM.
Regarding `O=C1C2=C(C(=O)c3c(O)ccc(O)c31)N(c1cccnc1)Cc1ccccc1O2`, the GI50 is 0.289 µM in the experiment with IGROV1 ovarian; 0.0923 µM with HCT-116 colon; 0.653 µM with PC-3 prostate; 0.651 µM with U251 CNS; 2.29 µM with HOP-62 NSCLC; 0.312 µM in the experiment with SN12C renal. The values for the GI50 in the experiment on SK-MEL-5 melanoma and in the experiment with K-562 leukemia were 1.33 µM and 0.0752 µM, respectively. In addition, the TGI in the experiment on IGROV1 ovarian was 0.96 µM; in the experiment on HCT-116 colon, 0.324 µM; in the experiment on PC-3 prostate, 2.03 µM; with U251 CNS, 2.76 µM; in the experiment on HOP-62 NSCLC it was 6.64 µM; in the experiment with SN12C renal, 1.02 µM. The same compound yielded a TGI with SK-MEL-5 melanoma of 2.99 µM.
As to `CC(C)(C)c1cc(O)c2c(c1O)C(=O)CCC2`, the TGI in the experiment with IGROV1 ovarian is above 100 µM; with HCT-116 colon, above 100 µM; with U251 CNS, above 100 µM; in the experiment with HOP-62 NSCLC, 91.9 µM; in the experiment with SN12C renal, above 100 µM; in the experiment with SK-MEL-5 melanoma, 39.2 µM. The TGI with K-562 leukemia is above 100 µM.
Take `C=CCNC(=O)ON1C(=O)CCC1=O`: the TGI with IGROV1 ovarian, in the experiment on HCT-116 colon, in the experiment on U251 CNS, in the experiment with HOP-62 NSCLC, in the experiment with SN12C renal and in the experiment on K-562 leukemia was above 100 µM each time.
